The target of assay [1] is T1, Con A (Canavalia ensiformis, UniProt P02866).
T1 construct: purchased Sigma
The following applies: obtained by microcalorimetry; cited from earlier work.

For the next assay, the target named is T2, lectins or antibodies (Lens culinaris, UniProt P02870).
T2 construct: purchased Sigma
T2 sequence (P02870 31-210 limits assumed): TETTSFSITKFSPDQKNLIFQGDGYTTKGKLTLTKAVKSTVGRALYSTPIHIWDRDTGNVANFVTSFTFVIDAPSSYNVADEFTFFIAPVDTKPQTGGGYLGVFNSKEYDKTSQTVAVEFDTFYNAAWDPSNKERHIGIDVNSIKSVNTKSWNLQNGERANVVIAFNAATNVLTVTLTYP
T2 sequence (P02870 218-269 limits assumed): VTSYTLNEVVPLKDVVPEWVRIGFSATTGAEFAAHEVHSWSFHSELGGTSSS
Put plainly: Direct binding on glycan microarray, lectin or antibody not named. The following applies: binding protein not given. From the text: Prior studies of carbohydrate-protein interactions have used a threshold-based, one-step qualitative analysis i.e. interaction or non-interaction. The threshold varies from one carbohydrate to another and is based on how well the carbohydrate behaves in the assay. Even when closely related glycans are studied under ideal conditions, they vary with respect to the surface density of active carbohydrates. Since the intensity of a spot depends both on KD,surf (which results from binding affinity), and Fmax (which results from surface active carbohydrate density and protein binding), the information obtained by probing an array with a single concentration of analytes may not be accurate.

The target in assay [2] is T1, Con A. Put plainly: Competitive binding assay on glycan microarray (solution KD / Ki).
Text: The solution equilibrium dissociation constant (KD) for carbohydrate-lectin interactions can be determined using microarrays in a competitive assay. […] In a competitive binding experiment, carbohydrates in solution compete with immobilized carbohydrate ligands for the binding sites on the lectin, establishing a coupled equilibrium between the binding of protein to the immobilized species and to the species present in solution. Using array imaging signals, the unbound protein concentration [P] can be obtained via Langmuir isotherms (eq 1). Once the concentration of P has been measured, it is possible to determine the KD using eq 2, which is derived from the multivalent Scatchard formula (see the Experimental Section for the derivation of eq 2)
where [Lo] is ligand (carbohydrate) concentration applied to the system, and KD is the solution equilibrium dissociation constant. […] Binding curves, representing different concentrations of competitors were obtained as the function of FITC-Con A concentrations and fluorescence intensities from the Man8 surface (FIG. 4a). The data was analyzed according to eq 2, to afford apparent KD values, which were then replotted against competitor concentration to afford the solution KD values (FIG. 4b). […]
ArrayVision 8.0 (Applied Precision) was used for the fluorescence analysis and extraction of data. […]
The target of assay [3] is T1, Con A. As to conditions: obtained by SPR; cited from earlier work.

Read-outs that look alike come from different tables or passages of the source.

Regarding `COC1OC(CO)C(O)C(O)C1O` (stereo not drawn) [a-MeGlc, α-methyl glucose], the Ki on Con A [1] is 520 µM.
For the compound Man9, the “Fmax (maximal fluorescence intensity)” value on lectins or antibodies was found to be 25780. Also, the Kd on lectins or antibodies (read-out: KD (dissociation constant, surface)) was 0.335 µM. At Con A [2] (from solution KD values), the “fold stronger than Man1 in binding to Con A” value was “more than 10^3 fold”.
As to `COC1OC(CO)C(O)C(O)C1O` (stereo not drawn) [a-MeMan, α-methyl mannose], at Con A [2] (inhibitors in solution, Con A), the “relative affinity KD (a-MeGlc)/KD (a-MeMan)” value was 4.3. Further, the Ki at Con A [3] is 92 µM; on Con A [1], 120 µM.

Values taken from US8906832B2, “Quantitative analysis of carbohydrate-protein interactions using glycan microarrays: determination of surface and solution dissociation constants” (Academia Sinica, priority 2008, dated 2014).
